US9157104B2, “Method to improve phosphate solubilization in plants” (Consiglio Nazionale delle Ricerche, priority 2009, dated 2015)

Key:
[1] = Soluble phosphate release into bacterial free medium containing 5% PR
From the text: FIG. 4. Changes in soluble phosphate release into the bacterial free medium containing 5% phosphate rock (PR) as P source (P-limiting conditions for bacteria growing in a minimal media with PR). […] The amounts of each added organic acids derived from the data obtained in HPLC analysis and were reported in the Material and Methods section. Data are the mean±SD of five independent biological experiments (p<0.006). The concentration of soluble phosphate was estimated using a modification of Fiske and Subarrow method as described by […] et al. (37). […] Bacterial free medium was also treated with 0.5 mM IAA solution. A media that simulates growth is a media without bacteria or their supernatant. The media comprises only RP and the organic acids used as purified powder commercially available (SIGMA), the organic acids concentration used are that produced by the bacteria when grown in a defined media (with IAA, or without, or from RFD64).

[2] = tested on: pho operon genes in S. meliloti cells; assay: Quantitative RT-PCR analysis of pho operon genes; format: cell-based; conditions: compounds 0.5 mM, 3 hours
Method: FIG. S1. Quantitative RT-PCR analysis of pho operon genes in S. meliloti cells under P-sufficient conditions (13 mM K-phosphate). The relative expression level was >1 for genes more highly expressed in RD64 and in 1021 cells treated for 3 hours with 0.5 mM IAA, Ind, Trp, ICA and 2,4-D. The relative expression level was <1 for genes more highly expressed in 1021 cells (control). Error bars represent the standard deviation from three independent biological experiments.
FIG. 1. Quantitative RT-PCR analysis of pho operon genes expression in S. meliloti cells under P-starving conditions. The relative expression level was >1 for genes more highly expressed in RD64 and in 1021 cells treated for 3 hours with 0.5 mM IAA, Ind, Trp, ICA and 2,4-D. The relative expression level was <1 for genes more highly expressed in 1021 cells (control). Error bars represent the standard deviation from five independent biological experiments (p<0.05).
Total RNA from P-sufficient and P-starved cells was isolated as previously described (5). cDNA were synthesized with the StrataScript™ reverse transcription reagents (Stratagene) and random hexamers as primers. Quantitative PCR was performed with the Power SYBR PCR Master Mix (Applied Biosystems). Reactions were run on the iCycler iQ (Bio-Rad). The thermo cycling condition were: 15 min at 95° C., 40 cycles of denaturation at 95° C. for 20 s, annealing (20 s) and extension (35 s) at 72° C. Specific primer pairs, designed using the Primer3 software, are shown.
smc02641 and smc00128 were used as housekeeping genes for data normalization in the comparative Ct method as previously described (8). Phosphatase Activity

S. meliloti 1021 = assay: Microarray gene expression of 1021 cells treated with 0.5 mM compound; conditions: 1021 + 0.5 mM IAA vs untreated 1021; P-sufficient (13 mM);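 note: cells were harvested 3 h after the start of each treatment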
Method: For P starvation experiments, cells of 1021 wild-type and RD64 strains were grown at 30° C. to mid exponential phase (OD600=0.6) in RMM broth containing 1% (w/v) mannitol as carbon source and 13 mM P, washed with RMM containing 0 P, resuspended in the same medium and then divided into three cultures. No P (−P), 1.0 mM P (P-starved cells) or 13 mM P (+P cells also named P-sufficient cells) was added into the three cultures, respectively. The P-starved and P-sufficient 1021 wild type cells were treated for 3.0 hours with 0.5 mM IAA. […] To rule out that this bacteria could be partially starved for Trp, RD64 cells were also treated with 0.5 mM Trp and used for microarrays and RT-PCR analyses. […] After 3 hours of each treatment, cell batches were collected, freezed and stored at −80° C. for use in experiments.

S. meliloti cells = assay: Organic acids exuded by S. meliloti cells (HPLC, GC-MS); format: cell-based; conditions: minimal medium containing 5% PR as the sole phosphate source; IAA 0.5 mM where added
Method: For phosphate solubilization experiments 5% Moroccan phosphate rock (PR) (Sigma-Aldrich, cat. No. 32) was used as P source. When 5% PR is used as P source to allow bacterial growth this is described as a P-limiting condition. At least five independent experiments were always performed.
The organic acids were determined by HPLC with a reverse-phase Hypersil GOLD C18 (100×4.6 mm) column (Thermo Electron Corporation). The operating conditions and quantification were previously described (20).
Organic acid fractions collected from HPLC were dried, derivatized to their tert-butyldimethylsilyl (tBDMS) derivatives and analysed on a Micromass GCT mass spectrometer (Waters corp, Manchester, UK) coupled to an Agilent 6890 Series gas chromatograph fitted with 7683 auto-sampler (Agilent Technologies, Palo Alto, Calif.) and ZB-5 ms (Phenomenex, Macclesfield, UK) caplillary column (30 m×0.25 mm I.D.×0.25 μm d.f. with 5 m Guardian). Samples were injected using splitless injection technique at 250° C. and a helium gas flow of 2.0 ml min^−1. The oven was set at 70° C. for 2 min, then ramped at 7° C. min^−1 to 350° C. and held for 5 min. The GC interface and source temperatures were set to 250° C. and EI^+ mass spectra were acquired at 70 eV from 0 to 47 min with an acquisition rate of 1 spectra/sec. Chromatographic peaks were identified either from existing mass spectral and retention time data from standards previously analysed at Rothamsted Research LTD (Harpenden Herts, UK) or from the NIST mass spectral database in conjunction with retention data obtained from the literature (30). Determination of the accurate mass, to within 5 ppm, of M^+, M-15^+, M-57^+ was used to verify analyte identifications. The chromatograms obtained for each sample were compared to the derivatization reagent blank.

acid phosphatase = assay: Acid phosphatase activity under P-starved conditions; format: cell-based, S. meliloti; conditions: phosphate starvation; vs 1021 cells; compounds 0.5 mM, 3 hours at 30° C.

Structure (SMILES): O=C(O)CCC(O)C(=O)O (centres unmarked) [2-hydroxyglutaric acid]
- P solubilization upon exogenous addition of 2-hydroxyglutaric acid ([1]; sterilized medium, level comparable to that released during Mt-RD64 plant growth (115.2 mg/l)): highest

Structure (SMILES): O=C(O)Cc1c[nH]c2ccccc12 [IAA, indole-3-acetic acid]
- expression level of all five pho genes (RT-PCR) ([2]; P-starved conditions, vs control 1021): highly induced
- phoB regulatory gene expression (qRT-PCR) ([2]; P-sufficient (13 mM K-phosphate), vs untreated 1021 cells): down-regulated
- concentration of soluble P in bacteria free media ([1]; bacteria free media with addition of IAA (0.5 mM)): negligible
- M (log2 ratio of intensities) Mc01302 rplP (S. meliloti 1021): −1.862
- M (log2 ratio of intensities) SMa1118 hspC2 (S. meliloti 1021): 1.296
- M (log2 ratio of intensities) SMb20893 gguB (S. meliloti 1021): 1.754
- M (log2 ratio of intensities) SMb20895 chvE (S. meliloti 1021): 1.425
- M (log2 ratio of intensities) SMb20922 smb20922 (S. meliloti 1021): 1.711
- M (log2 ratio of intensities) SMb21174 phoT (S. meliloti 1021): −1.207
- M (log2 ratio of intensities) SMb21177 phoC (S. meliloti 1021): −0.7939
- M (log2 ratio of intensities) SMb21183 htpG (S. meliloti 1021): 1.384
- M (log2 ratio of intensities) SMb21197 oppB (S. meliloti 1021): 1.111
- M (log2 ratio of intensities) SMc00363 rpmI (S. meliloti 1021): −0.9807
- M (log2 ratio of intensities) SMc00364 rplT (S. meliloti 1021): −0.715
- M (log2 ratio of intensities) SMc00568 rpsF (S. meliloti 1021): −0.7616
- M (log2 ratio of intensities) SMc01103 rbsK (S. meliloti 1021): 1.2
- M (log2 ratio of intensities) SMc01169 ald (S. meliloti 1021): 3.025
- M (log2 ratio of intensities) SMc01291 rpmD (S. meliloti 1021): −1.237
- M (log2 ratio of intensities) SMc01295 rpsH (S. meliloti 1021): −0.8996
- M (log2 ratio of intensities) SMc01296 rpsN (S. meliloti 1021): −0.8326
- M (log2 ratio of intensities) SMc01301 rpmC (S. meliloti 1021): −1.273
- M (log2 ratio of intensities) SMc01309 rplC (S. meliloti 1021): −0.7247
- M (log2 ratio of intensities) SMc01319 rplJ (S. meliloti 1021): −1.438
- M (log2 ratio of intensities) SMc01628 smc01628 (S. meliloti 1021): 0.7123
- M (log2 ratio of intensities) SMc02475 smc02475 (S. meliloti 1021): 0.7339
- M (log2 ratio of intensities) SMc02514 smc02514 (S. meliloti 1021): 1.764
- M (log2 ratio of intensities) SMc02729 smc02729 (S. meliloti 1021): 0.8942
- M (log2 ratio of intensities) SMc02786 smc02786 (S. meliloti 1021): 1.11
- M (log2 ratio of intensities) SMc03168 smc03168 (S. meliloti 1021): 1.165
- M (log2 ratio of intensities) SMc04087 smc04087 (S. meliloti 1021): 1.593
- Organic acid content, Fumarate (S. meliloti cells): 1.7 ± 0.1 mg/L
- Organic acid content, Malate (S. meliloti cells): 86 ± 10 mg/L
- Organic acid content, Succinate (S. meliloti cells): 864 ± 79 mg/L
- acid phosphatase activity (acid phosphatase): increase
